Measurements as given in patent publication US10883962B2, “Electrical double layer in nanopores for detection and identification of molecules and submolecular units” (University of Kentucky Research Foundation, priority 2017, dated 2021).

Key:
[1] = Expected valence charge of analytes and ions based on pKas; assay type: physicochemical; conditions: for Expected valence charge: maximal negative charge, intraluminal pH of 12; for Valence charge level (Zanalyte): used in the empirical model, Example 2
Text: In order to investigate any dependency of the signal on the analyte concentration, the concentrations of the molecular analytes were varied from 10^−8 to 10^−2 M in 10^−5 M NaF solution. Because NaF dissociates into Na^+ and F^−, and F^− will form HF in solution (due to HF being a weak acid), it was important to ensure that the concentration of HF was negligible compared with the concentration of the molecular analytes and supporting electrolytes. […] The specific analytes used in this study were chosen to have distinct acid dissociation constants (pKas) and to be relatively similar in size (Table 2). […] NaCl was chosen as the supporting electrolyte in this pH experiment in order to maintain a homogeneous ion population with the titration reagents, NaOH and HCl. It was desirable to avoid using HF as a titration reagent, due to the risk of damaging the nanopore device and because HF is a weak acid. In low pH conditions, the concentration of undissociated HF would increase to non-negligible levels. Since HCl and NaOH are a strong acid and base, respectively, there was no risk of producing undissociated molecules at low or high pHs. […] In order to characterize this energetic balance, we estimate the pH of the intraluminal environment by considering the variable valence charges and pKas of the analytes. Table 3 lists the expected charge on each analyte at different pHs based on the pKas of the individual analytes.

[2] = Density and estimated spherical radius of analytes and supporting ions; assay type: physicochemical
[3] = cited from earlier work
[4] = Saturation of NaF solution; assay type: physicochemical; conditions: in this study
Text: The SNR is consistent for electrolyte concentrations <1 M, and the sudden decrease in SNR at 1 M NaF is indicative of a saturation effect, where saturation of the solution would preclude significant changes to the electrochemical potential of the EDL. By considering the charge density and steady state double layer potential as response curves, we can explain the loss of signal quality at high concentrations of supporting electrolyte (FIG. 3(c)). The increase in steady-state potential and charge density (calculated from the model) slows at high concentrations, and a similar effect occurs experimentally to the steady state double layer potential. The decrease in slope of the response curves at high concentration will result in smaller signals from the analytes, resulting in the decrease in SNR observed at high concentrations of supporting electrolyte. Since the measured steady state potential and solution saturation follow similar curves, this may be a useful method for quantitatively characterizing solutions, as well as a method of characterizing individual analyte molecules.

[5] = 21° C.; cited from earlier work

| SMILES | Expected valence charge [1] | Valence charge at pH ([1]; pH 1) | Valence charge at pH ([1]; pH 2, 3) | Valence charge at pH ([1]; pH 4) | Valence charge at pH ([1]; pH 5, 6) | Valence charge at pH ([1]; pH 7, 8, 9, 10) | Valence charge at pH ([1]; pH 11) | Valence charge at pH ([1]; pH 12) | Valence charge level (Zanalyte) [1] | Estimated spherical radius [2] | Saturated NaF solution reached [4] | pKa 2 [3] | pKa 1 [3] | Saturation of NaF [5] |
| --- | --- | --- | --- | --- | --- | --- | --- | --- | --- | --- | --- | --- | --- | --- |
| O=C(O)CC(O)(CC(=O)O)C(=O)O [Citric Acid] | −3 | 0 | 0 | −1 | −2 | −3 | −3 | −3 | −3 | 0.37 nm | – | – | – | – |
| Oc1ccc(O)cc1 [Hydroquinone] | −1 | 0 | 0 | 0 | 0 | 0 | −1 | −1 | −1 | 0.32 nm | – | – | 10.35 | – |
| Cl [Cl−] | – | – | – | – | – | – | – | – | – | 0.21 nm | – | – | – | – |
| [Na+] [Na^+] | 1 | – | – | – | – | – | – | – | – | 0.21 nm | – | – | – | – |

More lines, main results first:

| Expected valence charge [1] | Valence charge at pH ([1]; pH 1) | Valence charge at pH ([1]; pH 2, 3) | Valence charge at pH ([1]; pH 4) | Valence charge at pH ([1]; pH 5, 6) | Valence charge at pH ([1]; pH 7, 8, 9, 10) | Valence charge at pH ([1]; pH 11) | Valence charge at pH ([1]; pH 12) | Valence charge level (Zanalyte) [1] | Estimated spherical radius [2] | Saturated NaF solution reached [4] | SMILES | pKa 2 [3] | pKa 1 [3] | Saturation of NaF [5] |
| --- | --- | --- | --- | --- | --- | --- | --- | --- | --- | --- | --- | --- | --- | --- |
| −2 | 0 | 0 | 0 | −1 | −1 | −1 | −2 | −2 | 0.35 nm | – | O=C1O[C@H]([C@@H](O)CO)C(O)=C1O [L-Ascorbic acid] | 11.7 | – | – |
| 1 | – | – | – | – | – | – | – | – | 0.26 nm | – | [K+] [K^+] | – | – | – |
| −1 | 0 | −1 | −1 | −1 | −1 | −1 | −1 | −1 | 0.27 nm | – | O=C(O)C(=O)O [Oxalic acid] | – | – | – |
| – | – | – | – | – | – | – | – | – | – | approximately 1 M | [F-].[Na+] [NaF] | – | – | 0.96 M |
| −1 | – | – | – | – | – | – | – | – | 0.17 nm | – | F [F−] | – | – | – |
